The subject of experiment [1] is Helicobacter pylori. Description: Inhibition of Helicobacter pylori recombinant alpha1,3-fucosyltransferase using GDP-[14C]-fucose preincubated for 30 mins by liquid scintillation counting.
For experiment [2], the target named is T1, 4-galactosyl-N-acetylglucosaminide 3-alpha-L-fucosyltransferase 9 (Homo sapiens, UniProt Q9Y231).
T1 sequence (Q9Y231 whole entry): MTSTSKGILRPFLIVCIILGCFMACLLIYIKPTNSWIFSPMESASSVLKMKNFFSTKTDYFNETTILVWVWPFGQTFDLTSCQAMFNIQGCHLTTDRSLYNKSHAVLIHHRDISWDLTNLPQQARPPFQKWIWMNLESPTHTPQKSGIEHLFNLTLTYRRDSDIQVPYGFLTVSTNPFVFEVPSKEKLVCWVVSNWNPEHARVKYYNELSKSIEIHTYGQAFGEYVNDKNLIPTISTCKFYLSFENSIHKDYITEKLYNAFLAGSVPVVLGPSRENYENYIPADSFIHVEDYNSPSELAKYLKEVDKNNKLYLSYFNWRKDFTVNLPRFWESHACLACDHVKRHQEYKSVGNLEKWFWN
Description: (§1) Inhibition of human recombinant alpha1,3-fucosyltransferase 9 using GDP-[14C]-fucose preincubated for 30 mins by liquid scintillation counting.

Experiment [3] has as its target T2, 4-galactosyl-N-acetylglucosaminide 3-alpha-L-fucosyltransferase 9 (Homo sapiens) (UniProt Q9Y231).
T2 sequence (whole entry): T1 sequence (Q9Y231 whole entry)
The description is as §1. Also noted: concentration or dose not given beside the values.

Experiment [4] concerns Helicobacter pylori. Kind of experiment: Inhibition of Helicobacter pylori recombinant alpha1,3-fucosyltransferase using GDP-[14C]-fucose assessed as remaining activity preincubated for 30 mins by liquid scintillation counting.

The values below come from ChEMBL document CHEMBL3351541, “Synthesis and analysis of potential α1,3-fucosyltransferase inhibitors” (Bioorg Med Chem, 2014).

Calls of active or inactive are those of the source. No cut-off for these calls is given here.

Turning to `Nc1nc2c(ncn2[C@@H]2O[C@H](COP(=O)(O)OP(=O)(O)O)[C@@H](O)[C@H]2O)c(=O)[nH]1`, the inhibition in the experiment on Helicobacter pylori [1] is < 75%. In experiment [2], the half-inhibitory concentration (IC50) amounted to 59 µM and the inhibitory constant (Ki) came to 77.9 µM.
For the compound `Nc1nc2c(ncn2[C@@H]2O[C@H](COP(=O)(O)OP(=O)(O)OP(=O)(O)O)[C@@H](O)[C@H]2O)c(=O)[nH]1` [GUANOSINE TRIPHOSPHATE], the inhibition with Helicobacter pylori [1] is < 75%. In experiment [2], the IC50 is 94 µM and the inhibitory constant (Ki) came to 80.7 µM. For the same compound, the inhibition in experiment [3] was < 75%.
`Nc1nc2c(ncn2[C@@H]2O[C@H](COP(=O)(O)OP(=O)(O)OCc3cn([C@@H]4O[C@H](CO)[C@H](O)[C@H](O)[C@H]4O)nn3)[C@@H](O)[C@H]2O)c(=O)[nH]1`: in experiment [2], the IC50 worked out at 247 µM and the inhibition constant Ki amounted to 186 µM.
For the compound `C[C@@H](O)[C@H](O)[C@H](O)[C@@H](O)C=O`, in the experiment on Helicobacter pylori [1], the inhibition result is “Active”. Besides, the inhibition entry in experiment [3] is “inactive”.
Take `Nc1ncnc2c1ncn2[C@@H]1O[C@H](COP(=O)(O)OP(=O)(O)O)[C@@H](O)[C@H]1O`: the inhibition entry with Helicobacter pylori [1] was “Active”. Also, the inhibition result in experiment [3] was “inactive”.
Turning to `Nc1nc2c(ncn2[C@@H]2O[C@H](COP(=O)(O)OP(=O)(O)OCc3cn([C@@H]4O[C@H](CO)[C@@H](O[C@@H]5O[C@H](CO)[C@H](O)[C@H](O)[C@H]5O)[C@H](O)[C@H]4O)nn3)[C@@H](O)[C@H]2O)c(=O)[nH]1`, the inhibition in experiment [3] is 45%.
`NC[C@@H]1O[C@H](OP(=O)(O)OP(=O)(O)OC[C@H]2O[C@@H](n3cnc4c(=O)[nH]c(N)nc43)[C@H](O)[C@@H]2O)[C@@H](O)[C@H](O)[C@@H]1O`: in experiment [2], the IC50 is 104 µM and the Ki is 102 µM. Further, the inhibition in experiment [3] was determined as 78%.
For the compound `O=c1[nH]cnc2c1ncn2[C@@H]1O[C@H](COP(=O)(O)OP(=O)(O)O)[C@@H](O)[C@H]1O`, the figures for the inhibition (in the experiment with Helicobacter pylori [1]; in experiment [3]) were 65% and 30%, respectively.
With `C[C@@H]1O[C@H](n2cc(COP(=O)(O)OP(=O)(O)OC[C@H]3O[C@@H](n4cnc5c(=O)[nH]c(N)nc54)[C@H](O)[C@@H]3O)nn2)[C@@H](O)[C@H](O)[C@@H]1O`, in experiment [2], the concentration for half-maximal inhibition (IC50) was 139 µM and the inhibition constant (Ki) turned out to be 137 µM.
As to `Nc1nc2c(ncn2[C@@H]2O[C@H](COP(=O)(O)O)[C@@H](O)[C@H]2O)c(=O)[nH]1`, the inhibition result with Helicobacter pylori [1] is “Active”. In addition, the inhibition entry in experiment [3] is “inactive”.
Take `CC(=O)Nc1nc2c(ncn2[C@@H]2O[C@H](COP(=O)(O)OP(=O)(O)OCc3cn([C@@H]4O[C@H](COC(C)=O)[C@H](OC(C)=O)[C@H](OC(C)=O)[C@H]4OC(C)=O)nn3)[C@@H](OC(C)=O)[C@H]2OC(C)=O)c(=O)[nH]1`: the inhibition in the experiment on Helicobacter pylori [1] worked out at 45%. The inhibition entry in experiment [3] was “inactive”.
For the compound `Nc1nc2c(ncn2[C@H]2C[C@H](O)[C@@H](CO[P@](=O)(O)OP(=O)(O)O)O2)c(=O)[nH]1`, the Activity in the experiment with Helicobacter pylori [4] was found to be 60%. Besides, in experiment [2], the 50% inhibitory concentration (IC50) was 49 µM and the Ki was 50.3 µM. For the same compound, the inhibition in experiment [3] was < 80%.
As for `C[C@H]1O[C@@H](n2cc(COP(=O)(O)OP(=O)(O)OC[C@H]3O[C@@H](n4cnc5c(=O)[nH]c(N)nc54)[C@H](O)[C@@H]3O)nn2)[C@H](O)[C@@H](O)[C@H]1O`, in experiment [2], the IC50 came out at 134 µM and the inhibition constant (Ki) was 190 µM.

Usually inhibition stands for the change of the read-out against control, counted positive when it falls. The IC50 is the concentration at which inhibition is half-maximal. For orientation: Ki means a measure of affinity in units of concentration, obtained from inhibition or displacement.
